Experimental data reported in US20250163051A1, “PYRIMIDO AROMATIC RING COMPOUND AND USE THEREOF IN DRUG” (SUNSHINE LAKE PHARMA CO., LTD., priority 2022, published 2025).
Where two headings read alike, the source gives them in different places.

Experiments:
[1] = test system: CYP3A4; assay: Induction of CYP3A4 in frozen human hepatocytes; format: in vitro ADME; details: 72 h induction, concentration and readout not stated; for CYP3A4 Induction percentage relative to positive control (%): positive control Rifampicin
Experimental: (§1) Experimental purpose: Using frozen human hepatocytes as the test system, the induction effects of the test substances on CYP1A2, CYP2B6 and CYP3A4 were evaluated from two aspects of enzyme activity and mRNA level.
(§2) Experimental method: 24 hours after cell plating, induction was started by adding medium containing the test compound (test concentrations were 10, 1, and 0.1 μM), and fresh drug-containing medium was replaced every 24 hours. After 72 hours of induction, the medium was replaced with medium containing CYP1A2, CYP2B6, and CYP3A4 specific substrates for 30 minutes of incubation. 100 μL was taken for treatment, and the labeled metabolites of the substrates were detected to evaluate the enzyme activity level. Finally, the cells were lysed and reverse transcribed, and the expression levels of CYP1A2, CYP2B6 and CYP3A4 genes in the cells were evaluated by real-time quantitative PCR.
(§3) The induction fold of the test compound compared with the blank control and the induction percentage of the test compound compared with the positive control were used as the basis for evaluating the induction potential of the test compound. Among them, the positive control for CYP1A2 is Omeprazole; the positive control for CYP2B6 is Phenobarbital; the positive control for CYP3A4 is Rifampicin.

[2] = test system: CYP1A2; assay: Induction of CYP1A2 in frozen human hepatocytes; format: in vitro ADME; details: 72 h induction, concentration and readout not stated
Experimental: as §1, §2, §3

[3] = test system: CYP2B6; assay: Induction of CYP2B6 in frozen human hepatocytes; format: in vitro ADME; details: 72 h induction, concentration and readout not stated; for CYP2B6 Induction percentage relative to positive control (%): positive control Phenobarbital
Experimental: as §1, §2, §3

[4] = molecular target: T1, hERG channel (Homo sapiens, UniProt Q12809); assay: hERG channel current in HEK293 cells, automated patch clamp; format: cell-based; details: HEK-293 cells stably expressing hERG, whole-cell patch clamp, 0.3-30 μM
T1 construct: expressed in transfected cells; host or cells: HEK-293 cells stably expressing hERG
T1 sequence (Q12809 whole entry): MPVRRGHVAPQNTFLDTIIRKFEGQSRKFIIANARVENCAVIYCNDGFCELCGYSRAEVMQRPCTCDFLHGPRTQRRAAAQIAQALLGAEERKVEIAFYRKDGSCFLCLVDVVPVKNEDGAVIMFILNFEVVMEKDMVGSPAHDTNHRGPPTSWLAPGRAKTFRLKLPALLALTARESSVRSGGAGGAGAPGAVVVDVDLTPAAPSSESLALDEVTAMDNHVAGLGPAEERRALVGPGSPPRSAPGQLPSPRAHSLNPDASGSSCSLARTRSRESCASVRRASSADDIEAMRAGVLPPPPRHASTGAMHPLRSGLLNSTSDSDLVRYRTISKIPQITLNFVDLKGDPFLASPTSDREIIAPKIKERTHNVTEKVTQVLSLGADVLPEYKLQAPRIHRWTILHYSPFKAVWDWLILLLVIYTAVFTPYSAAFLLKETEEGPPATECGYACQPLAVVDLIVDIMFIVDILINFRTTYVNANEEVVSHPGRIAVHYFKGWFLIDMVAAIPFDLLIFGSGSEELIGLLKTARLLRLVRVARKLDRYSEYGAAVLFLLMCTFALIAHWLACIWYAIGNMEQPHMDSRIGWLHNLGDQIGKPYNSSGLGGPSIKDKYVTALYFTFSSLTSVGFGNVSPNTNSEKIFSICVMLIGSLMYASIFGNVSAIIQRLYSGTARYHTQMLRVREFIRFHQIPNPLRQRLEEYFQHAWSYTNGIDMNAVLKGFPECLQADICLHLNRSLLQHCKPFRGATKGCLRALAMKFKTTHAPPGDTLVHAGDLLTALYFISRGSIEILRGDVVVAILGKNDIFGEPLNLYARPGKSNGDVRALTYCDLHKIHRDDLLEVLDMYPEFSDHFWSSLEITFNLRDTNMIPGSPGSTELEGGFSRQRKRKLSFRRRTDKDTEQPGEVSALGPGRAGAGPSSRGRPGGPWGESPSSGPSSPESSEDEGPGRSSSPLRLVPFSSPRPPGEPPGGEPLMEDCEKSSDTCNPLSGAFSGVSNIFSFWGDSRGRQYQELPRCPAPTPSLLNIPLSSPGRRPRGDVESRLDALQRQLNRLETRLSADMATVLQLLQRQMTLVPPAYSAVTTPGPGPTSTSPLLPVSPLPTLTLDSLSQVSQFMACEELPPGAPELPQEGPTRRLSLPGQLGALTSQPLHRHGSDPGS
Experimental: Test 2: Detection of the Effect of Compounds on hERG Channel Currents Stably Expressed in HEK293 Cells Using Automated Patch Clamp
Experimental purpose: The concentration-effect relationship of the blocking effect of the compounds on hERG channels was determined using the patch clamp technique and HEK-293 cells stably expressing hERG channels to evaluate their risk of inhibitory effect on cardiac hERG potassium channels.
Experimental method: hERG cells were clamped using the patch clamp technique to form a high-resistance seal and then the membrane was broken. The whole-cell recording mode was used to record the hERG current. Each drug concentration was set to be administered twice for at least 5 minutes. The test concentrations were 0.3 μM, 1 μM, 3 μM, 10 μM and 30 μM, and the changes of the test compounds on hERG current were observed.

[5] = molecular target: T2, hTLR8 (Homo sapiens, UniProt Q9NR97); assay: Agonistic activity on human TLR8 in HEK-Blue hTLR8 cells (QUANTI-Blue); format: cell-based; details: 24 h incubation, OD650, read-out: hTLR 8 EC50
T2 construct: expressed in transfected cells; host or cells: HEK-Blue hTLR8 cells
T2 sequence (Q9NR97 27-1041): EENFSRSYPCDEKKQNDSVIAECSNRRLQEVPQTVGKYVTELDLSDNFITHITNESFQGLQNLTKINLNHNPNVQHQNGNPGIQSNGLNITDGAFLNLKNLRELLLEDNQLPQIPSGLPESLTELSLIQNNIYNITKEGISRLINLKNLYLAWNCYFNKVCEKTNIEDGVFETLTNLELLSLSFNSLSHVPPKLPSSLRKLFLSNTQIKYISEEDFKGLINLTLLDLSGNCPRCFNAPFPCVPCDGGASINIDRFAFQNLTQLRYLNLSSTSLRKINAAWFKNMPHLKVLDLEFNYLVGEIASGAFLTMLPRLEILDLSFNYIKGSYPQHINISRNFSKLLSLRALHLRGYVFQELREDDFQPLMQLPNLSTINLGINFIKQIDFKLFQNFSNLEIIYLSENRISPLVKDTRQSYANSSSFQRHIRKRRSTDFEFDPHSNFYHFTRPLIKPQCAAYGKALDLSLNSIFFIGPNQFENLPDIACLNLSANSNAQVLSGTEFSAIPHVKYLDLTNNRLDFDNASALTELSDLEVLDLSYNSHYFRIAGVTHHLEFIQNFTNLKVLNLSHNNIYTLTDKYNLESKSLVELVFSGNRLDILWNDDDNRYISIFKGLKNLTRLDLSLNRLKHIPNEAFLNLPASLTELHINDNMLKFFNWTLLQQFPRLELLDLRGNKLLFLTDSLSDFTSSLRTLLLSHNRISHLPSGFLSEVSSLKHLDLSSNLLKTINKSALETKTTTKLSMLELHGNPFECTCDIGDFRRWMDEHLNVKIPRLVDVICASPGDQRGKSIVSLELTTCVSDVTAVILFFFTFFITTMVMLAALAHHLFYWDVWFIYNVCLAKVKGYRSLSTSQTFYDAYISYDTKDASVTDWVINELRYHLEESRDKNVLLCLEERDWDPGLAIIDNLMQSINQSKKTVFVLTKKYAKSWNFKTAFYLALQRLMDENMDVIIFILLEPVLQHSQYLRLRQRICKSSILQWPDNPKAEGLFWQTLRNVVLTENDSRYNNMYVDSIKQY

[6] = molecular target: T3, hTLR7 (Homo sapiens, UniProt Q9NYK1); assay: Agonistic activity on human TLR7 in HEK-Blue hTLR7 cells (QUANTI-Blue); format: cell-based; details: 24 h incubation, OD650, read-out: hTLR 7 EC50
T3 construct: expressed in transfected cells; host or cells: HEK-Blue hTLR7 cells
T3 sequence (Q9NYK1 27-1049): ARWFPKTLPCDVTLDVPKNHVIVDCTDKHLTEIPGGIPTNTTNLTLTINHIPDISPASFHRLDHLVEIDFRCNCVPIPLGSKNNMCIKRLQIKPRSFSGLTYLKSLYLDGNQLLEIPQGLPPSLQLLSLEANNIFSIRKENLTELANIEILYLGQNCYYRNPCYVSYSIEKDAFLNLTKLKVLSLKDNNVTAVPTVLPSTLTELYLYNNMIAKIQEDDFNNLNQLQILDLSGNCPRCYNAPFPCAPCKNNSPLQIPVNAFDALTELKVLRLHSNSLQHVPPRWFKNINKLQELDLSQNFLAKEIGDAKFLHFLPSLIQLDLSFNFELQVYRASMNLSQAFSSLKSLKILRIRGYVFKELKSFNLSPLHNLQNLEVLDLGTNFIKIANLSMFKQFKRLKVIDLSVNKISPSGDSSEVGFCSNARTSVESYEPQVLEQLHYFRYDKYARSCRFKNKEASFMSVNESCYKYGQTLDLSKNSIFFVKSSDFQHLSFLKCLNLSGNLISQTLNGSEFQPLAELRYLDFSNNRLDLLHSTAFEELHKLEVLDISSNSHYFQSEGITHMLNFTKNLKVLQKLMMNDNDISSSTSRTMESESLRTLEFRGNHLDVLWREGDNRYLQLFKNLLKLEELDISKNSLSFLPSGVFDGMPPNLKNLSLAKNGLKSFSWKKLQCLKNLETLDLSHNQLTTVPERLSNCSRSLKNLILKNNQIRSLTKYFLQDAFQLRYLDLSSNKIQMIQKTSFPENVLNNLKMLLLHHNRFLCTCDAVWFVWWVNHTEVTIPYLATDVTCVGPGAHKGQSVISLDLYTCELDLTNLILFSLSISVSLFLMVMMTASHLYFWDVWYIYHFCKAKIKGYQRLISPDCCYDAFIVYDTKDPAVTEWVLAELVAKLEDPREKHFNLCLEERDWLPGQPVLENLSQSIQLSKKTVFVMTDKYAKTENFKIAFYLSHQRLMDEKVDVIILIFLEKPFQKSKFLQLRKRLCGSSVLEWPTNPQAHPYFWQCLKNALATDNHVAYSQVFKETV
Experimental: Purpose: HEK-Blue™ hTLR7 and HEK-Blue™ hTLR8 cells were used to detect the agonist and cytotoxic activities of compounds against hTLR7 and hTLR8.
The experimental steps were as shown below: • 1) Preparation of compound: The compound was prepared into a 20 mM stock solution with DMSO, and then the stock solution was diluted 3-fold in a gradient and added to a 96-well plate, for a total of 10 concentrations, with duplicate wells for each concentration. For negative control wells, 0.5 μL DMSO was added to each well. The final DMSO concentration was 0.5%. • 2) HEK-Blue™ hTLR7 or HEK-Blue™ hTLR8 cells were suspended in culture medium and then seeded into 96-well plates containing compounds at a cell count of 50,000 per well. The compounds and cells were incubated for 24 h at 37° C., 5% Co2. • 3) QUANTI-Blue was used for the detection solution: to a mixture of 1 mL of QB reagent and 1 mL of QB buffer was added 98 mL of sterile water, the mixture was mixed and dissolved, and then placed at room temperature for 10 min. • 4) Activity test of the compound: 20 μL of the culture supernatant in step 2) was added to each well of a 96-well plate containing 180 μL of QUANTI-Blue detection solution. After incubation at 37° C. for 1 h, the absorbance at 650 nm (OD650) was detected using a multifunctional microplate reader Flextation III. • 5) Detection of cell activity: The chemiluminescent signal (RLU) was detected using the multifunctional microplate reader Flextation III according to the instructions of Celltiter-Glo. • 6) Data analysis
Activity of compounds: OD650 values were analyzed using GraphPad Prism software, and the compound dose-effect curves were fitted to calculate the EC50 values of the compounds.

[7] = Cell toxicity (Celltiter-Glo) in HEK-Blue hTLR8 cells; details: human
[8] = molecular target: T4, CYP3A4 (Homo sapiens, UniProt P08684); assay: Inhibition of human liver microsomal CYP3A4; format: in vitro ADME; details: human liver microsomes, 10 μM test substance
T4 construct: from tissue; host or cells: human liver microsomes
T4 sequence (P08684 whole entry): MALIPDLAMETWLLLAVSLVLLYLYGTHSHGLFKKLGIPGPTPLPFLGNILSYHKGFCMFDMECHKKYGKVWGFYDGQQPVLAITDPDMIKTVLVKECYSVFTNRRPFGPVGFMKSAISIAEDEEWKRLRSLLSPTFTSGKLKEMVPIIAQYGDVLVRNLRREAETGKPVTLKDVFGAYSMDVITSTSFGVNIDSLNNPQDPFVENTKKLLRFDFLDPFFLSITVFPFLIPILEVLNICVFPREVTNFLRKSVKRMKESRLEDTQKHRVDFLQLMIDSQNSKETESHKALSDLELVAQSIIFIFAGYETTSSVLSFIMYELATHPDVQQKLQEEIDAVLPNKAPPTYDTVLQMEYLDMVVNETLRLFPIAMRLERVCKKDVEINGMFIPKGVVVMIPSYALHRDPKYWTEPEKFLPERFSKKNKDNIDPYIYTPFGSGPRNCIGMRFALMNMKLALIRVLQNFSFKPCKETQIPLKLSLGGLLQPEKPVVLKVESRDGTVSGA
Experimental: (§4) Experimental purpose: The inhibitory effects of the test compounds on the major metabolizing enzymes CYP1A2, CYP2C19, CYP2D6 and CYP3A4 in microsomes were evaluated using the human liver microsomal system. Experimental method: The test substance was incubated with a suspension of human liver microsomes containing cytochrome P450 enzymes CYP1A2, CYP2C19, CYP2D6 and CYP3A4 at a concentration of 10 μM in the final incubation system. The known substrates were metabolized by the corresponding single enzymes to generate specific metabolites, and the metabolites were determined by UPLC-MS/MS method. The relative inhibition rate (%) was calculated by the percentage reduction of metabolite production by the test compound and solvent DMSO in the same time period. N is the concentration value of the probe substrate metabolite and it is assumed that the […] with or without inhibitor at 0 min is 0. N+inh is the metabolite concentration in the group with inhibitor, and Nveh is the metabolite concentration in the group without inhibitor. The results of the inhibition test of the compounds of the present invention on human liver microsomal CYP enzymes are shown in Table C.

[9] = molecular target: T5, CYP1A2 (Homo sapiens, UniProt P05177); assay: Inhibition of human liver microsomal CYP1A2; format: in vitro ADME; details: human liver microsomes, 10 μM test substance; read-out: Relative inhibition rate (%) CYP1A2
T5 construct: from tissue; host or cells: human liver microsomes
T5 sequence (P05177 1-516): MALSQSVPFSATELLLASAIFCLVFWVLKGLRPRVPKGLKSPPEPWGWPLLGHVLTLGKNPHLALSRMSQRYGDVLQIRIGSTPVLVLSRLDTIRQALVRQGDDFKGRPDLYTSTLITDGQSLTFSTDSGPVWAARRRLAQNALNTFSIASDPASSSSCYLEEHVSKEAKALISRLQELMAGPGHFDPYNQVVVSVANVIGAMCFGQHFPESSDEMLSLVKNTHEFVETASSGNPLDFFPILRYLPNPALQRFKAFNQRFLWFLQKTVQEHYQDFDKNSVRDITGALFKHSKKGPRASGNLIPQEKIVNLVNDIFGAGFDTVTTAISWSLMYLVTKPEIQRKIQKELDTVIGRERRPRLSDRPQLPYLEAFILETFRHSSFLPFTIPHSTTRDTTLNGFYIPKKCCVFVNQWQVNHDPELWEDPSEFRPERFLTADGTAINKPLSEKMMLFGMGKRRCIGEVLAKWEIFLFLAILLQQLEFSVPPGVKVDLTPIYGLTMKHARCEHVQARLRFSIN
Experimental: as §4

[10] = molecular target: T6, CYP2C19 (Homo sapiens, UniProt P33261); assay: Inhibition of human liver microsomal CYP2C19; format: in vitro ADME; details: human liver microsomes, 10 μM test substance; read-out: Relative inhibition rate (%) CYP2C19
T6 construct: from tissue; host or cells: human liver microsomes
T6 sequence (P33261 whole entry): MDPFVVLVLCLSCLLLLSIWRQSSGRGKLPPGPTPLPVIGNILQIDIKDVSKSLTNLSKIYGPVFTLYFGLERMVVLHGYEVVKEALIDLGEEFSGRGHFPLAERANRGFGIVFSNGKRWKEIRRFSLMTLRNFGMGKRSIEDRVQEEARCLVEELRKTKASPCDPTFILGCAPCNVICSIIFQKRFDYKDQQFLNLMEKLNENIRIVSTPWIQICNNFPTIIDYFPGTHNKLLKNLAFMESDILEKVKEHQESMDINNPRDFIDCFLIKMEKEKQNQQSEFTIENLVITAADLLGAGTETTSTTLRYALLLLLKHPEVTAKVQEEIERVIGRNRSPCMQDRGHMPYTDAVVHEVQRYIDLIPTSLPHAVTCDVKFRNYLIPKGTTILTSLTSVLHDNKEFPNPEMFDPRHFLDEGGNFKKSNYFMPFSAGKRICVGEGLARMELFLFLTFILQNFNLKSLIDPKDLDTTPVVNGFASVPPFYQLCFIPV
Experimental: as §4

[11] = molecular target: T7, CYP2D6 (Homo sapiens, UniProt P10635); assay: Inhibition of human liver microsomal CYP2D6; format: in vitro ADME; details: human liver microsomes, 10 μM test substance; read-out: Relative inhibition rate (%) CYP2D6
T7 construct: from tissue; host or cells: human liver microsomes
T7 sequence (P10635 whole entry): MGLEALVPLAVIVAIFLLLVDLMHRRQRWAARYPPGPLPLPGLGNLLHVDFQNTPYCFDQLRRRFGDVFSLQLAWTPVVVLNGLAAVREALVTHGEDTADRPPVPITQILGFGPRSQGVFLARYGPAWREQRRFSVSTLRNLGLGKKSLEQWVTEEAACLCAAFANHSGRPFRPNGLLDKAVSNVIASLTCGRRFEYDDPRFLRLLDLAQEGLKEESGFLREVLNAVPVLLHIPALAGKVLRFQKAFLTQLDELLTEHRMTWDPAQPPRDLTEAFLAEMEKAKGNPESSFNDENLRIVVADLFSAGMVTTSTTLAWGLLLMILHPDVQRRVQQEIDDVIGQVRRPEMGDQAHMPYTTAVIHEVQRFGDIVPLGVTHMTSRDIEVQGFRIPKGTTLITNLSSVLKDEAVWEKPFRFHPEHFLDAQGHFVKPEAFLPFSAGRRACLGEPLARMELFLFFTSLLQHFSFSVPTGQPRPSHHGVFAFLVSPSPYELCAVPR
Experimental: as §4

[12] = probe Midazolam, substrate Midazolam, read-out: Relative inhibition rate (%) CYP3A4 (Midazolam)
[13] = probe Testosterone, substrate Testosterone, read-out: Relative inhibition rate (%) CYP3A4 (Testosterone)

SMILES | CYP3A4 Induction fold relative to blank control [1] | CYP3A4 Induction percentage relative to positive control (%) [1] [%] | CYP1A2 Induction fold relative to blank control [2] | CYP2B6 Induction fold relative to blank control [3] | CYP2B6 Induction percentage relative to positive control (%) [3] [%] | IC50 [4] [µM] | EC50 [5] [µM] | EC50 [6] [µM] | CC50 at 24 h [7] [µM] | inhibition at 10 µM [8, 12] [%] | inhibition at 10 µM [8, 13] [%] | inhibition at 10 µM [9] [%] | inhibition at 10 µM [10] [%] | inhibition at 10 µM [11] [%]
CCCC[C@](C)(CO)Nc1nc(N)nc2cc(F)cnc12 [Comparative compounds, (R)-2-((2-amino-7-fluoropyrido[3,2-d]pyrimidin-4-yl)amino)-2-methylhexan-1-ol, reference compound] | 9.5 | 15.8 | 2.6 | 3.6 | 24.5 | 3.3 |  |  |  |  |  |  |  | 
C=CCCN(C)Cc1c[nH]c(=O)cc1-c1cnc2c(N[C@@](C)(CO)CCCC)nc(N)nc2c1 [Example 9, (R)-4-(2-Amino-4-((1-hydroxy-2-methylhexan-2-yl)amino)pyrido[3,2-d]pyrimidin-7-yl)-5-((but-3-en-1-yl(methyl)amino)methyl)pyridin-2(1H)-one] | 4.2 | 2.0 | 1.0 | 1.3 | 4.2 | 24.7 | 0.02 | 31.8 | > 100 |  |  |  |  | 
CCCC[C@](C)(CO)Nc1nc(N)nc2cc(-c3cc(=O)[nH]cc3CN(C)C)cnc12 [Example 50, (R)-4-(2-Amino-4-((1-hydroxy-2-methylhexan-2-yl)amino)pyrido[3,2-d]pyrimidin-7-yl)-5-((dimethylamino)methyl)pyridin-2(1H)-one] |  |  |  |  |  |  | 0.016 | > 100 | > 100 | 13.7 | 11.6 | 10.7 | 11.4 | 9.7
CCCC[C@](C)(CO)Nc1nc(N)nc2cc(-c3cc(=O)[nH]cc3COC)cnc12 [Example 51, (R)-4-(2-Amino-4-((1-hydroxy-2-methylhexan-2-yl)amino)pyrido[3,2-d]pyrimidin-7-yl)-5-(methoxymethyl)pyridin-2(1H)-one] |  |  |  |  |  |  | 0.012 | > 100 | > 100 | 7.4 | 34.1 | 11.1 | 22.1 | 9.6
